Data as given in ChEMBL document CHEMBL4190267, “Discovery of potent molecular chimera (CM358) to treat human metastatic melanoma” (Eur J Med Chem, 2017).
Active and inactive are the calls of the source. The calls are words filed in the database; no cut-off is given here.

What was measured:
MDA-MB-231 = assay: Growth inhibition of human MDA-MB-231 cells preincubated for 6 hrs followed compound washout measured after 24 hrs by XTT assay; format: functional
NCI-H1299 = assay: Growth inhibition of human NCI-H1299 cells preincubated for 6 hrs followed compound washout measured after 24 hrs by XTT assay; format: functional
[1] = Half life in pH 7.4 PBS buffer by LC-MS analysis; format: physicochemical
WM 266-4 [2] = assay: Induction of apoptosis in human WM266.4 cells assessed as necrotic cells at 10 uM after 2 hrs by Annexin V-FITC/propidium iodide staining based flow cytometry (reference value: 1.22%); format: functional
WM 266-4 [3] = assay: Induction of apoptosis in human WM266.4 cells assessed as live cells at 10 uM after 8 hrs by Annexin V-FITC/propidium iodide staining based flow cytometry (reference value: 94.7%); format: functional
WM 266-4 [4] = assay: Induction of apoptosis in human WM266.4 cells assessed as early apoptotic cells at 10 uM after 8 hrs by Annexin V-FITC/propidium iodide staining based flow cytometry (reference value: 2.64%); format: functional
WM 266-4 [5] = assay: Induction of apoptosis in human WM266.4 cells assessed as late apoptotic cells at 10 uM after 24 hrs by Annexin V-FITC/propidium iodide staining based flow cytometry (reference value: 1.41%); format: functional
WM 266-4 [6] = assay: Induction of apoptosis in human WM266.4 cells assessed as necrotic cells at 10 uM after 24 hrs by Annexin V-FITC/propidium iodide staining based flow cytometry (reference value: 1.22%); format: functional
WM 266-4 [7] = assay: Induction of apoptosis in human WM266.4 cells assessed as early apoptotic cells at 25 uM after 2 hrs by Annexin V-FITC/propidium iodide staining based flow cytometry (reference value: 2.64%); format: functional
WM 266-4 [8] = assay: Induction of apoptosis in human WM266.4 cells assessed as live cells at 25 uM after 8 hrs by Annexin V-FITC/propidium iodide staining based flow cytometry (reference value: 94.7%); format: functional
WM 266-4 [9] = assay: Induction of apoptosis in human WM266.4 cells assessed as live cells at 25 uM after 24 hrs by Annexin V-FITC/propidium iodide staining based flow cytometry (reference value: 94.7%); format: functional
WM 266-4 [10] = assay: Induction of apoptosis in human WM266.4 cells assessed as early apoptotic cells at 25 uM after 24 hrs by Annexin V-FITC/propidium iodide staining based flow cytometry (reference value: 2.64%); format: functional
WM 266-4 [11] = assay: Induction of apoptosis in human WM266.4 cells assessed as late apoptotic cells at 25 uM after 24 hrs by Annexin V-FITC/propidium iodide staining based flow cytometry (reference value: 1.41%); format: functional
WM 266-4 [12] = assay: Induction of necrosis in human WM266.4 cells at 5 to 25 uM after 16 hrs by Annexin V-FITC/propidium iodide staining based fluorescence microscopic method; format: functional, cell-based
WM 266-4 [13] = assay: Cell cycle arrest in human WM266.4 cells assessed as accumulation at G1 phase at 10 uM after 2 hrs by propidium iodide staining based flow cytometry (reference value: 59%); format: functional
WM 266-4 [14] = assay: Cell cycle arrest in human WM266.4 cells assessed as accumulation at G2 phase at 10 uM after 2 hrs by propidium iodide staining based flow cytometry (reference value: 11%); format: functional
WM 266-4 [15] = assay: Cell cycle arrest in human WM266.4 cells assessed as accumulation at S phase at 10 uM after 8 hrs by propidium iodide staining based flow cytometry (reference value: 27%); format: functional
WM 266-4 [16] = assay: Cell cycle arrest in human WM266.4 cells assessed as accumulation at G2 phase at 10 uM after 8 hrs by propidium iodide staining based flow cytometry (reference value: 11%); format: functional
[17] = target: DNA topoisomerase 2-alpha (Homo sapiens) (UniProt P11388); assay: Inhibition of human topoisomerase-2alpha assessed as reduction in enzyme-mediated decatenation at 100 uM using kinetoplast DNA as substrate after 25 mins by ethidium bromide staining based agarose gel electrophoresis method
[18] = target: DNA topoisomerase 2-alpha (Homo sapiens) (UniProt P11388); assay: Inhibition of human topoisomerase-2alpha assessed as reduction in enzyme-mediated decatenation at 25 uM using kinetoplast DNA as substrate after 25 mins by ethidium bromide staining based agarose gel electrophoresis method
Mus musculus = assay: Toxicity in athymic Foxn1 nu mouse assessed as effect on body weight at 10 mg/kg, ip administered once daily for 3 days followed by resting period of 4 days repeated for 4 weeks; format: organism-based; conditions: in vivo
WM 266-4 [19] = assay: (§1) Antitumor activity against human WM266.4 cells xenografted in athymic Foxn1 nu mouse assessed as tumor growth inhibition at 10 mg/kg, ip administered once daily for 7 days followed by resting period of 2 days repeated for 4 weeks starting from 5 days post tumor inoculation measured on day 21 relative to control; format: functional; conditions: WM 266-4, ip, read-out: TGI
WM 266-4 [20] = assay: as §1, with “increase in 50% survival of mouse” for “tumor growth inhibition”, “inoculation” for “inoculation measured on day 21”; format: functional
WM 266-4 [21] = assay: Antitumor activity against human WM266.4 cells xenografted in athymic Foxn1 nu mouse assessed as mouse survival at 10 mg/kg, ip administered once daily for 3 days followed by resting period of 4 days repeated for 4 weeks starting from 5 days post tumor inoculation relative to control; format: functional; conditions: WM 266-4, ip

Sequence of DNA topoisomerase 2-alpha (Homo sapiens) (P11388 whole entry): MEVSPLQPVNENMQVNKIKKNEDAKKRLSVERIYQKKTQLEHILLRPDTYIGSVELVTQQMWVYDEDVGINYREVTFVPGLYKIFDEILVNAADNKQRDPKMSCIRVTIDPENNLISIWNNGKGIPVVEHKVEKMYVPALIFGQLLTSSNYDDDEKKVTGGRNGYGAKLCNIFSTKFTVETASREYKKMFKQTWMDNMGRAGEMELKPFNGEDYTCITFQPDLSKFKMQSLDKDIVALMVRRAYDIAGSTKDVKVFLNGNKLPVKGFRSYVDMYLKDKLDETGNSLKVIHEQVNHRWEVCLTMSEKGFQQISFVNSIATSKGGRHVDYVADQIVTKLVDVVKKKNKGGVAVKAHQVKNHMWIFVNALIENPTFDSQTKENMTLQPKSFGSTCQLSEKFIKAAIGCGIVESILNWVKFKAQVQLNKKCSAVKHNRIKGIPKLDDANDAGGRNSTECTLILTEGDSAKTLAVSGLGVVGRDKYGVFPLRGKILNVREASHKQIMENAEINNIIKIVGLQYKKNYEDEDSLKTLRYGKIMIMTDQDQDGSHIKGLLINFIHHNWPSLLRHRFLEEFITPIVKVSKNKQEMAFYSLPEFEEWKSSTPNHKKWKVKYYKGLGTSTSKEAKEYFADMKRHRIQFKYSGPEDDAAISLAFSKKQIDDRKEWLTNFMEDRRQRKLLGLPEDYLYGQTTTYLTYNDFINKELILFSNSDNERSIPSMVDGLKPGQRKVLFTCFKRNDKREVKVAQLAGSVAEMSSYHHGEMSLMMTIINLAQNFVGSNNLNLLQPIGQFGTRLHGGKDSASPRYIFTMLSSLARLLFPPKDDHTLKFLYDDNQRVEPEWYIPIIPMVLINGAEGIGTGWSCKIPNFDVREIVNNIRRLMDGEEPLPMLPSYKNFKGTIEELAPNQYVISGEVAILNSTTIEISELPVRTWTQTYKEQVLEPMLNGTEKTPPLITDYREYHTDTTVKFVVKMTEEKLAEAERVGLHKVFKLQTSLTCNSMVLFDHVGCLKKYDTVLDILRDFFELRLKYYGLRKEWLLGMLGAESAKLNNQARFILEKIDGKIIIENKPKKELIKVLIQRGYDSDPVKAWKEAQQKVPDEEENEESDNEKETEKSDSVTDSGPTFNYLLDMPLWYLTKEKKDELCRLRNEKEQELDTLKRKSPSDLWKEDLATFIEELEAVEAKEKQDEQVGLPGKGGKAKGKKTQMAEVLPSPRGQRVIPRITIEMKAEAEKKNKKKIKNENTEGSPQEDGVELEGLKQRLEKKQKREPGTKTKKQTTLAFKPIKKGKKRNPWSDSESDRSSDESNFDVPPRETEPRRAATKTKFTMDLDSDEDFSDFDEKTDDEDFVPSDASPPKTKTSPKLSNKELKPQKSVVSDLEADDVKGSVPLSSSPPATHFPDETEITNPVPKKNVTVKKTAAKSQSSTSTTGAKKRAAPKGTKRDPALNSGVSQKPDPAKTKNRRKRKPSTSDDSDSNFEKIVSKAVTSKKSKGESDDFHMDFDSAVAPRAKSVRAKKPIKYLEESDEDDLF

CN(C)CCN1C(=O)c2cccc3cc(NC(=O)CCCc4ccc(N(CCCl)CCCl)cc4)cc(c23)C1=O.O=C(O)C(F)(F)F
GI50 (MDA-MB-231): 3.1 µM
GI50 (NCI-H1299): 6.8 µM
half-life [1]: 1500 min
Activity (WM 266-4 [2]): 6.58%
Activity (WM 266-4 [3]): 82.4%
Activity (WM 266-4 [4]): 6.66%
Activity (WM 266-4 [5]): 1.29%
Activity (WM 266-4 [6]): 10.3%
Activity (WM 266-4 [7]): 6.79%
Activity (WM 266-4 [8]): 61.1%
Activity (WM 266-4 [9]): 40%
Activity (WM 266-4 [10]): 18.8%
Activity (WM 266-4 [11]): 19.8%
Activity (WM 266-4 [12]): Active
Activity (WM 266-4 [13]): 39%
Activity (WM 266-4 [14]): 15%
Activity (WM 266-4 [15]): 46%
Activity (WM 266-4 [16]): 17%
inhibition [17]: Active
inhibition [18]: Active
Activity (Mus musculus): Non-Toxic
inhibition in vivo at 10 mg/kg (WM 266-4 [19]): 40%
Activity (WM 266-4 [20]): 24%
survival at 10 mg/kg (WM 266-4 [21]): 60%
